Experiments:
B. subtilis 168 [1] = test: fitness (endpoint OD595 vs no drug) (fraction); higher = more growth
Procedure, shortened: (§1)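 In 384-well plates at 37 °C, cultures began at OD595 0.01 in 30 µl, with 55 µl used for S. pneumoniae. OD595 readings every 30 min for 14 h were corrected by the first reading. Fitness divides the stationary-phase transition optical density by the robust mean of no-drug control wells. The result is capped at 1.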

S. aureus DSM 20231 [2] = test: as above
Procedure, shortened: as §1

S. aureus Newman [3] = test: as above
Procedure, shortened: as §1

S. pneumoniae D39V [4] = test: as above
Procedure, shortened: as §1

B. subtilis 168 [5] = test: Bliss interaction score (quartile over a dose matrix) (fitness difference); higher = more antagonism (negative = synergy)
Procedure, shortened: (§2)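 Fitness is OD595 at stationary-phase entry relative to the plate's robust no-drug mean, capped at 1. Single-drug fitness was inferred from combinations. The Bliss score is observed minus product-expected fitness, summarised by quartiles over technical, biological and donor/recipient replicates.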

S. aureus DSM 20231 [6] = test: as above
Procedure, shortened: as §2

S. aureus Newman [7] = test: as above
Procedure, shortened: as §2

S. pneumoniae D39V [8] = test: as above
Procedure, shortened: as §2
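Wherever Bliss interaction score (quartile over a dose matrix) is given: first quartile when negative (synergy) and third quartile when positive (antagonism).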

C[C@@H]1O[C@@H]1P(=O)(O)O [Fosfomycin] + C[n+]1ccc(-c2cc[n+](C)cc2)cc1 [Paraquat]
fitness
Details	partner 1.25 µg/mL	partner 1.5 µg/mL	partner 2.5 µg/mL	partner 3 µg/mL	partner 5 µg/mL	partner 6 µg/mL
B. subtilis 168 [1], first compound 1.562 µg/mL	0.681	–	0.673	–	0.567	–
B. subtilis 168 [1], first compound 3.124 µg/mL	0.529	–	0.598	–	0.519	–
B. subtilis 168 [1], first compound 6.248 µg/mL	0.381	–	0.386	–	0.3	–
S. aureus DSM 20231 [2], first compound 0.781 µg/mL	0.717	–	0.7	–	0.702	–
S. aureus DSM 20231 [2], first compound 1.562 µg/mL	0.593	–	0.551	–	0.585	–
S. aureus DSM 20231 [2], first compound 3.124 µg/mL	0.481	–	0.51	–	0.476	–
S. aureus Newman [3], first compound 0.781 µg/mL	0.542	–	0.546	–	0.574	–
S. aureus Newman [3], first compound 1.562 µg/mL	0.468	–	0.47	–	0.483	–
S. aureus Newman [3], first compound 3.124 µg/mL	0.0901	–	0.116	–	0.169	–
S. pneumoniae D39V [4], first compound 1.25 µg/mL	–	0.985	–	0.959	–	0.985
S. pneumoniae D39V [4], first compound 2.5 µg/mL	–	0.974	–	0.973	–	0.97
S. pneumoniae D39V [4], first compound 5 µg/mL	–	0.812	–	0.831	–	0.791

Details	Bliss interaction score
B. subtilis 168 [5]	-0.0619
S. aureus DSM 20231 [6]	-0.101
S. aureus Newman [7]	-0.12
S. pneumoniae D39V [8]	-0.0411

C[C@@H]1O[C@@H]1P(=O)(O)O [Fosfomycin] + Cc1cc(NS(=O)(=O)c2ccc(N)cc2)no1 [Sulfamethoxazol]
fitness, one replicate
Details	first compound 0.781 µg/mL	first compound 1.562 µg/mL	first compound 3.124 µg/mL	first compound 6.248 µg/mL
B. subtilis 168 [1], partner 0.5 µg/mL	–	0.794	0.686	0.592
S. aureus Newman [3], partner 8 µg/mL	0.782	0.733	0.519	–

fitness
Details	partner 1 µg/mL	partner 2 µg/mL	partner 4 µg/mL
B. subtilis 168 [1], first compound 1.562 µg/mL	0.652	0.673	0.679
B. subtilis 168 [1], first compound 3.124 µg/mL	0.548	0.557	0.516
B. subtilis 168 [1], first compound 6.248 µg/mL	0.489	0.378	0.379
S. aureus DSM 20231 [2], first compound 0.781 µg/mL	0.709	0.696	0.678
S. aureus DSM 20231 [2], first compound 1.562 µg/mL	0.547	0.581	0.581
S. aureus DSM 20231 [2], first compound 3.124 µg/mL	0.49	0.503	0.509
S. aureus Newman [3], first compound 0.781 µg/mL	0.627	0.705	0.71
S. aureus Newman [3], first compound 1.562 µg/mL	0.513	0.572	0.496
S. aureus Newman [3], first compound 3.124 µg/mL	0.211	–	0.141
S. pneumoniae D39V [4], first compound 1.25 µg/mL	0.957	0.935	0.955
S. pneumoniae D39V [4], first compound 2.5 µg/mL	0.918	0.925	0.943
S. pneumoniae D39V [4], first compound 5 µg/mL	0.757	0.756	0.78

Details	Bliss interaction score
B. subtilis 168 [5]	-0.0756
S. aureus DSM 20231 [6]	-0.0688
S. aureus Newman [7]	0.0933
S. pneumoniae D39V [8]	-0.0416

C[C@@H]1O[C@@H]1P(=O)(O)O [Fosfomycin] + Cc1ncc([N+](=O)[O-])n1CCO [Metronidazole]
fitness
Details	partner 0.625 µg/mL	partner 1.073 µg/mL	partner 1.25 µg/mL	partner 2.145 µg/mL	partner 2.5 µg/mL	partner 4.29 µg/mL	partner 5 µg/mL
B. subtilis 168 [1], first compound 1.562 µg/mL	0.72	–	0.687	–	0.701	–	–
B. subtilis 168 [1], first compound 3.124 µg/mL	0.679	–	0.627	–	0.634	–	–
B. subtilis 168 [1], first compound 6.248 µg/mL	0.583	–	0.573	–	0.481	–	–
S. aureus DSM 20231 [2], first compound 0.781 µg/mL	0.785	–	0.783	–	0.852	–	–
S. aureus DSM 20231 [2], first compound 1.562 µg/mL	0.605	–	0.624	–	0.682	–	–
S. aureus DSM 20231 [2], first compound 3.124 µg/mL	0.497	–	0.493	–	0.493	–	–
S. aureus Newman [3], first compound 0.781 µg/mL	0.58	–	0.636	–	0.612	–	–
S. aureus Newman [3], first compound 1.562 µg/mL	0.502	–	0.511	–	0.453	–	–
S. aureus Newman [3], first compound 3.124 µg/mL	0.133	–	0.079	–	0.0859	–	–
S. pneumoniae D39V [4], first compound 1.25 µg/mL	–	0.957	0.975	0.94	0.992	0.95	1
S. pneumoniae D39V [4], first compound 2.5 µg/mL	–	0.929	0.97	0.798	0.965	0.914	0.995
S. pneumoniae D39V [4], first compound 5 µg/mL	–	0.87	0.857	0.893	0.886	0.864	0.847

fitness, S. aureus Newman [3], one replicate
Details	first compound 0.781 µg/mL	first compound 1.562 µg/mL	first compound 3.124 µg/mL
partner 0.781 µg/mL	0.587	0.579	0.211
partner 1.562 µg/mL	0.565	0.538	0.236
partner 3.124 µg/mL	0.584	0.546	0.272

Details	Bliss interaction score
B. subtilis 168 [5]	0.0663
S. aureus DSM 20231 [6]	-0.0362
S. aureus Newman [7]	-0.0452
S. pneumoniae D39V [8]	0.0507

C[C@@H]1O[C@@H]1P(=O)(O)O [Fosfomycin] + Cc1onc(-c2ccccc2)c1C(=O)N[C@@H]1C(=O)N2[C@@H]1SC(C)(C)[C@@H]2C(=O)O [Oxacillin]
Details	fitness
B. subtilis 168 [1], first compound 1.562 µg/mL, partner 0.002 µg/mL	0.65
B. subtilis 168 [1], first compound 1.562 µg/mL, partner 0.004 µg/mL	0.696
B. subtilis 168 [1], first compound 1.562 µg/mL, partner 0.008 µg/mL	0.568
B. subtilis 168 [1], first compound 3.124 µg/mL, partner 0.002 µg/mL	0.566
B. subtilis 168 [1], first compound 3.124 µg/mL, partner 0.004 µg/mL	0.546
B. subtilis 168 [1], first compound 3.124 µg/mL, partner 0.008 µg/mL	0.51
B. subtilis 168 [1], first compound 6.248 µg/mL, partner 0.002 µg/mL	0.358
B. subtilis 168 [1], first compound 6.248 µg/mL, partner 0.004 µg/mL	0.33
B. subtilis 168 [1], first compound 6.248 µg/mL, partner 0.008 µg/mL	0.281
S. aureus DSM 20231 [2], first compound 0.781 µg/mL, partner 0.0156 µg/mL	0.539
S. aureus DSM 20231 [2], first compound 0.781 µg/mL, partner 0.0312 µg/mL	0.504
S. aureus DSM 20231 [2], first compound 0.781 µg/mL, partner 0.0625 µg/mL	0.489
S. aureus DSM 20231 [2], first compound 1.562 µg/mL, partner 0.0156 µg/mL	0.442
S. aureus DSM 20231 [2], first compound 1.562 µg/mL, partner 0.0312 µg/mL	0.459
S. aureus DSM 20231 [2], first compound 1.562 µg/mL, partner 0.0625 µg/mL	0.362
S. aureus DSM 20231 [2], first compound 3.124 µg/mL, partner 0.0156 µg/mL	0.402
S. aureus DSM 20231 [2], first compound 3.124 µg/mL, partner 0.0312 µg/mL	0.335
S. aureus DSM 20231 [2], first compound 3.124 µg/mL, partner 0.0625 µg/mL	0.0751
S. aureus Newman [3], first compound 0.781 µg/mL, partner 0.0156 µg/mL	0.606
S. aureus Newman [3], first compound 0.781 µg/mL, partner 0.0312 µg/mL	0.563
S. aureus Newman [3], first compound 0.781 µg/mL, partner 0.0625 µg/mL	0.49
S. aureus Newman [3], first compound 1.562 µg/mL, partner 0.0156 µg/mL	0.475
S. aureus Newman [3], first compound 1.562 µg/mL, partner 0.0312 µg/mL	0.421
S. aureus Newman [3], first compound 1.562 µg/mL, partner 0.0625 µg/mL	0.279
S. aureus Newman [3], first compound 3.124 µg/mL, partner 0.0156 µg/mL	0.145
S. aureus Newman [3], first compound 3.124 µg/mL, partner 0.0312 µg/mL	0.0796
S. aureus Newman [3], first compound 3.124 µg/mL, partner 0.0625 µg/mL	0.0515
S. pneumoniae D39V [4], first compound 1.25 µg/mL, partner 0.005 µg/mL	≥ 1
S. pneumoniae D39V [4], first compound 1.25 µg/mL, partner 0.01 µg/mL	0.996
S. pneumoniae D39V [4], first compound 1.25 µg/mL, partner 0.02 µg/mL	0.916
S. pneumoniae D39V [4], first compound 1.25 µg/mL, partner 0.04 µg/mL	0.3
S. pneumoniae D39V [4], first compound 2.5 µg/mL, partner 0.005 µg/mL	0.982
S. pneumoniae D39V [4], first compound 2.5 µg/mL, partner 0.01 µg/mL	0.913
S. pneumoniae D39V [4], first compound 2.5 µg/mL, partner 0.02 µg/mL	0.843
S. pneumoniae D39V [4], first compound 2.5 µg/mL, partner 0.04 µg/mL	0.181
S. pneumoniae D39V [4], first compound 5 µg/mL, partner 0.005 µg/mL	0.85
S. pneumoniae D39V [4], first compound 5 µg/mL, partner 0.04 µg/mL	0.0702

fitness, B. subtilis 168 [1], one replicate
Details	partner 0.0078 µg/mL	partner 0.0155 µg/mL	partner 0.031 µg/mL	partner 0.075 µg/mL	partner 0.15 µg/mL	partner 0.3 µg/mL
first compound 1.562 µg/mL	0.807	0.835	0.797	0.339	0.0497	0.0455
first compound 3.124 µg/mL	0.663	0.68	0.613	0.164	0.0172	0.0362
first compound 6.248 µg/mL	0.548	0.531	0.504	0.0968	0.0104	0.0381

Details	Bliss interaction score
B. subtilis 168 [5]	-0.0577
S. aureus DSM 20231 [6]	-0.11
S. aureus Newman [7]	-0.0668
S. pneumoniae D39V [8]	-0.154
